From patent publication US12622918B2, “Formulations and dosages for administering a compound that inhibits MCL1 protein” (Amgen Inc., priority 2019, dated 2026)

Experiments:
[1] = tested on: KMS34; assay: Cell viability (CellTiterGlo), KMS34; type: cell-based; details: KMS-34; KMS34, Multiple myeloma; 24 hours; 10% FBS; read-out: AMS 176 IC50
[2] = tested on: Toledo; assay: Cell viability (CellTiterGlo), Toledo; type: cell-based; details: Homo sapiens, NHL, 24 hours, 10% FBS, read-out: AMS 176 IC50
[3] = tested on: SU-OHL-6; assay: Cell viability (CellTiterGlo), SU-OHL-6; type: cell-based; details: SU-OHL-6, NHL; 24 hours; 10% FBS; read-out: AMS 176 IC50
[4] = tested on: subjects with relapsed/refractory acute myelogenous leukemia; assay: Phase 1 FIH study, acute myeloid leukemia part 3; type: in vivo, human
Method: In part 3, 10 total subjects were enrolled across 2 cohorts, with doses of 60 mg/m^2 or 120 mg/m^2.

[5] = molecular target: Mouse MCL1 (Mus musculus, UniProt P97287); assay: Cell-free TR-FRET BIM-binding assay, Mouse MCL1; details: BIM-binding partner Mouse MCL1; n = 3
Mouse MCL1, sequence (P97287 whole entry): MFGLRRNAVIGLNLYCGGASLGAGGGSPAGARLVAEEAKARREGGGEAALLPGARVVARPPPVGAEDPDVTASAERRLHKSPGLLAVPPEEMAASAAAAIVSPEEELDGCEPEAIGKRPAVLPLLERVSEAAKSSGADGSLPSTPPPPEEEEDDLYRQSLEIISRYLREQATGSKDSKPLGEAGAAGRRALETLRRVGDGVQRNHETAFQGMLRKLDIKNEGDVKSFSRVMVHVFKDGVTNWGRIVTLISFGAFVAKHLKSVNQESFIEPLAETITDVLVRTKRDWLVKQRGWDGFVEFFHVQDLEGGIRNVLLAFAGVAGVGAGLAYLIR

[6] = tested on: HEL 92.1.7; assay: Cell viability (CellTiterGlo), HEL 92.1.7; type: cell-based; details: Homo sapiens; HEL 92.1.7, AML; 24 hours; 10% FBS; read-out: AMS 176 IC50
[7] = Plasma protein binding in vitro; type: in vitro ADME
[8] = tested on: HL-60; assay: Cell viability (CellTiterGlo), HL-60; type: cell-based; details: Homo sapiens; HL-60, AML; 24 hours; 10% FBS; read-out: AMS 176 IC50
[9] = tested on: Raji; assay: Cell viability (CellTiterGlo), Raji; type: cell-based; details: Homo sapiens, NHL, 24 hours, 10% FBS, read-out: AMS 176 IC50
[10] = tested on: MOLM-13; assay: Cell viability (CellTiterGlo), MOLM-13; type: cell-based; details: Homo sapiens; MOLM-13, AML; 24 hours; 10% FBS; read-out: AMS 176 IC50
[11] = tested on: KMS-28-PE; assay: Cell viability (CellTiterGlo), KMS-28-PE; type: cell-based; details: Multiple myeloma, 24 hours, 10% FBS, read-out: AMS 176 IC50
[12] = tested on: Molm13-Luc orthotopic tumors; assay: MOLM-13 Luc acute myeloid leukemia orthotopic model; type: in vivo; details: for TGI (tumor burden, whole body luminescence): female NSG mice
Method: On day 0, 70 female NSG mice were injected IV with 5×10^4 human Molm13-Luc AML tumor cells.

[13] = Distribution into blood cells; type: in vitro ADME
[14] = tested on: rat blood; assay: In vitro hemolysis of whole blood, rat; details: 0.048, 0.12, 0.24, 1.2, and 2.4 mg/mL, vehicles containing hydroxypropyl-β-cyclodextrin
[15] = molecular target: Monkey MCL1 (Macaca fascicularis, UniProt A0A2K5W0Y7); assay: Cell-free TR-FRET BIM-binding assay, Monkey MCL1; details: read-out: IC50 (Mean ± SD) of AMG 176 With Respect to Binding; BIM-binding partner Monkey MCL1; n = 3
Monkey MCL1, sequence (A0A2K5W0Y7 1-346): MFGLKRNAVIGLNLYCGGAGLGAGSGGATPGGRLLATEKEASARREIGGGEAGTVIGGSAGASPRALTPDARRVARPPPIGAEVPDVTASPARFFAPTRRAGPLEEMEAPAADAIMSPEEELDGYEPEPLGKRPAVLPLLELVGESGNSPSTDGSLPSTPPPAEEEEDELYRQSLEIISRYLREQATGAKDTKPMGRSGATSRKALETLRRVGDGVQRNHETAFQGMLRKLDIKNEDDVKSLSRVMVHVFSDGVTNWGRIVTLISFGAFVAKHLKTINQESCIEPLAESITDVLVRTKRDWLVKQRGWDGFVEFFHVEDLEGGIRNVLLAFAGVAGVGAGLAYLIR

[16] = tested on: U26681; assay: Cell viability (CellTiterGlo), U26681; type: cell-based; details: U26681, Multiple myeloma; 24 hours; 10% FBS; read-out: AMS 176 IC50
[17] = tested on: rat; assay: 28-day GLP rat IV infusion toxicology study; type: in vivo
Text: The doses selected for the 28-day IV rat and dog toxicology studies were intended to characterize the toxicity of the compound of Formula I and provide data to support a starting dose in the first-in-human (FIH) study. An IV route of administration and a dosing schedule of 2 days on/5 days off was used to support the anticipated clinical route and dosing schedule.

[18] = tested on: BAK; assay: BAK activation in OPM2-Luc tumor xenografts (PD); type: in vivo, mice; details: for BAK activation: 2-, vs vehicle p<0.05
Method: Activation of the pro-apoptotic pore-forming protein BAK and proteolytic cleavage of the cysteine-aspartic acid protease caspase 3 (hallmarks of the induction of apoptosis) in MCL1-dependent OPM2-Luc multiple myeloma tumor cells served as a PD assay. Female athymic nude mice were injected with 5×10^6 cells in 0.1 mL subcutaneously (SC). […] Mice were euthanized 2, 4, 8, 12, and 24 hours postdose (n=3/group), terminal plasma samples were collected for PK analysis, and tumors were halved and snap frozen in liquid nitrogen for PK and molecular analyses. Tumor lysates were prepared for evaluation of BAK activation and caspase 3 cleavage using an electrochemiluminescence immunoassay. Tumors treated with vehicle (25% HPβCD, pH 8) served as a negative control and indicated the baseline level of apoptosis.

[19] = Pharmacokinetics in mice; type: in vivo
Text: The pharmacokinetics (PK) of the compound of Formula I after single intravenous (IV) or oral administration were characterized in male CD1 mice, female athymic nude mice, male Nu/Nu mice, male Sprague Dawley rats, male beagle dogs, and male cynomolgus monkeys. The clearance (CL) of the compound was low in mice, rats, dogs, and monkeys relative to their hepatic blood flow. Volume of distribution at steady state (Vss) in mice, rats, dogs, and monkeys was variable across the species.

[20] = molecular target: Rabbit MCL1 (Oryctolagus cuniculus, UniProt G1T2Q0); assay: Cell-free TR-FRET BIM-binding assay, Rabbit MCL1; details: BIM-binding partner Rabbit MCL1; n = 3
Rabbit MCL1, sequence (G1T2Q0 1-352): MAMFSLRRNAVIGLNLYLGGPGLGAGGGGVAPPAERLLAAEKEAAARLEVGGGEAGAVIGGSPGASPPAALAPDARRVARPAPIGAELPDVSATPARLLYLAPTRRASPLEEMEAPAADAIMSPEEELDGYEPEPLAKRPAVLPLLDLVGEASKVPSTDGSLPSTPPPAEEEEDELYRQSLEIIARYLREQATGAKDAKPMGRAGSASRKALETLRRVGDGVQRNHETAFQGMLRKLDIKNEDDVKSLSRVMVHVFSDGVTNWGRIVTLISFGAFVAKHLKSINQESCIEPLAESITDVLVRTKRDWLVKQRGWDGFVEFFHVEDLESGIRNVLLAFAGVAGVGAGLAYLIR

[21] = tested on: human blood; assay: In vitro hemolysis of whole blood, human; details: highest concentration tested, 0.25 mg/mL

## CO[C@H]1/C=C/C[C@H](C)[C@@H](C)S(=O)(=O)NC(=O)c2ccc3c(c2)N(C[C@@H]2CC[C@H]21)C[C@@]1(CCCc2cc(Cl)ccc21)CO3 [AMG 176]
[1]
  IC50: 6.05 µM
[2]
  IC50: 9.7 µM
[3]
  IC50: 0.165 µM
[4]; AML part 3
  Grade 3 adverse events, subjects: 70%
  Serious adverse events, subjects: 60%
  adverse events considered related to AMG 176, subjects: 40%
  adverse events leading to discontinuation of investigational product, subjects: 20%
  fatal adverse events: No fatal adverse events occurred
  febrile neutropenia leading to discontinuation: 10%
  grade 4 adverse events, subjects: 20%
  related increased blood bilirubin: 20%
  related nausea: 20%
  superior vena cava syndrome leading to discontinuation: 10%
[4]; AML part 3, 10 subjects
  adverse events, subjects: 80%
[4]; AML part 3, any grade
  anemia, subjects: 20%
  hypokalemia, subjects: 30%
  hypomagnesemia, subjects: 20%
  increased blood bilirubin, subjects: 20%
  nausea, subjects: 30%
  peripheral edema, subjects: 30%
  pyrexia, subjects: 20%
  vomiting, subjects: 20%
[4]; AML part 3, both cohorts combined
  anemia of grade 3 or higher: 20%
[4]; AML, 10 subjects, 60 or 120 mg/m^2, preliminary
  exposures (Cmax and AUC) versus dose: generally increased with increasing doses
[5]
  IC50: 0.0498 µM
[6]
  IC50: 5.99 µM
[7]
  plasma protein binding: highly plasma-protein bound
[8]
  IC50: 0.11 µM
[9]
  IC50: 3.55 µM
[10]
  IC50: 0.241 µM
[11]
  IC50: 12 µM
[12]; 30 mg/kg oral QD2
  TGI (tumor burden, whole body luminescence): 28%
[12]; 60 mg/kg oral QD2
  TGI (tumor burden, whole body luminescence): 69%
[12]; 100 mg/kg oral QD
  TGI (tumor burden, whole body luminescence): 86%
[12]; all AMG 176 groups
  overt toxicity by changes in body weight: No evidence of overt toxicity
[13]
  distribution into blood cells: did not preferentially distribute into blood cells
[14]
  hemolysis of whole blood: cased hemolysis
[15]
  IC50: 0.000182 µM
[16]
  IC50: 8.22 µM
[17]
  finding related to morbidity and mortality: mucosal epithelial degeneration in the small and large intestines
[17]; IV infusion, 28-day
  dose with mortality: 120 mg/kg
[17]; IV infusion, 2 days on/5 days off, 28-day
  severely toxic dose in 10% of animals (STD10): 60 mg/kg
[18]; 30 mg/kg oral gavage, 4-, and 8-hour time points
  BAK activation: Statistically significant BAK activation
[18]; 60 mg/kg oral gavage
  time point of greatest BAK activation: 4 h
[18]; 60 mg/kg oral gavage, 4-, 8-, and 12-hour time points
  BAK activation: Statistically significant BAK activation
[18]; OPM2-Luc tumor xenografts, summary statement
  induction of multiple markers of apoptosis, including BAK activation and caspase 3 cleavage: dose-dependent induction
[19]
  mean terminal elimination half-life (t1/2,z): 13.8 h
[20]
  IC50: 0.000191 µM
[21]
  hemolysis of whole blood: not hemolytic
